# Measured values as given in patent publication US20210278408A1, “METHODS OF TREATMENT OF CANCER WITH SUBSTITUTED PYRROLE AND PYRAZOLE COMPOUNDS AND DIAGNOSIS OF CANCERS SUSCEPTIBLE TO TREATMENT WITH SUBSTITUTED PYRROLE AND PYRAZOLE COMPOUNDS” (Bantam Pharmaceutical, LLC, priority 2018, published 2021).
# Entries after “also recorded” stand apart in the source; their conditions may differ. Read-outs that look alike come from different tables or passages of the source.
# How the values were obtained:
# A549 = assay: Anti-proliferative activity, CellTiter-Glo, 72 hours: A549; assay type: cell-based, human; settings: Homo sapiens, A549 (non-small cell lung cancer), Cell-Titre-Glo
# Description: (§1) Anti-proliferative activity of BTM compounds. The anti-proliferative activities of Compound A197 and Compound B19 were compared to 4EGI-1 (a known cancer cell growth inhibitor) in a panel of 99 tumor lines. Methods: A panel of 96 tumor and 3 normal cell lines were tested for sensitivity to the test compound. The cell lines were cultured in standard media and pipetted into 96-well plates at the required plating densities. The cells were acclimated for 24 hours prior to compound testing. Compound was prepared as a stock of 20 mM in DMSO. To prepare dose response curves compound was serially diluted in DMSO and dispensed into the plate wells using a Tecan D300e digital dispenser. The final DMSO concentration was 0.15%. After 72 hours of incubation cell number was determined using the CellTiter-Glo® protocol according to the manufacturers instructions (Promega). In this assay, ATP is measured as a surrogate of cell number. The activity of the compound is determined by comparing untreated cells with treated cells and calculating the % of signal retained. Compound activity is measured as an EC50 of maximum level of efficacy and the two are used to compute an activity area. The table below provides a comparison of activity in a data sample.
# MDA-MB-157 = assay: Anti-proliferative activity, CellTiter-Glo, 72 hours: MDA-MB-157; assay type: cell-based, human; settings: Homo sapiens, MDA-MB-157, 72 h
# Description: as §1
# [1] = Pharmacokinetics in CD-1 mice, single oral dose compared to single intravenous dose; assay type: in vivo; settings: for bioavailability: CD-1, mouse, po; for Cmax: blood plasma
# Description: Pharmacokinetic Properties of Compound A197 Compound A197 levels in blood plasma of CD-1 mice given a single, oral dose of the agent and compared to a single intravenous dose, were measured to assess basic pharmacokinetic parameters. A197 was dissolved in 1% NMP, 0.3% Tween-80 in 0.5% methylcellulose at a dose volume of 10 ml/kg. Following compound dosing, blood was collected by tail vein bleed at 30 minutes, 1, 2, 4, 8, 12, 24 and 48 hrs following dosing.
# GPCR = assay: In vitro assays: GPCR; assay type: biochemical; settings: 69 family members
# HDAC = assay: In vitro assays: HDAC; assay type: biochemical
# Description: (§2) Mechanism of Action Screens A series of broad high content imaging, transcriptomic, metabolomic, and CRISPR KO screens were performed to link Compound A197 activity to a probable method of action. The outcome of these screens included two notable observations.
# Gene Expression = assay: Transcriptomic screen; assay type: cell-based
# Description: as §2
# eIF2α phosphorylation = eIF2α phosphorylation in HCT-116 cells, Western blotting; assay type: cell-based, human; settings: 5 μM, 30 minutes, 1, 2 or 4 hrs
# Description: FIG. 12 is a set of graphs of Compound A197-induced phosphorylation of eIF2a. HCT-116 cells were treated with 5 μM Compound A197. eIF2α and p-eIF2α levels were determined by Western blotting. All data are mean±SD (n=3). *=p<0.05; #p<0.005.
# The canonical pathway of ATF4 induction involves eIF2α phosphorylation. To determine the levels of levels of eIF2α and p-eIF2α were determined using Western blotting. HCT-116 cells (1.5×10^5 per well) were cultured in 12 well tissue culture plates and treated with 5 μM Compound A197 dissolved in McCoys complete medium with 10% FBS for 30 minutes, 1,2 or 4 hrs. Following treatment, media was removed, the cells were washed with PBS and then lysed following addition of RIPA lysis buffer. The cell lysate is then clarified by centrifugation at 14,000×g for 10 minutes. The clarified lysate protein levels are determined using BCA methodology. All lysates are diluted with RIPA buffer to give a final concentration of 200 μg/ml. As a control, HCT-116 cells were starved for essential amino acids (EAA), which increases eIF2α phosphorylation via EIF2AAK4 (GCN2). The HCT-116 cells were plated as above but the media was removed and replaced with Earls Balanced salt solution. All subsequent steps for lysate preparation were identical to those described above.
# [2] = tested on: NHLF, BJAB, SU-DHL-2, and HCT-116 cells; assay: Total cellular GSH levels (GSH-Glo), all lines; assay type: cell-based, human; settings: tumor lines HCT-116, BJAB
# Description: Total cellular GSH levels are reduced in tumor lines treated with Compound A197 The therapeutic compounds will cause a dose dependent reduction in total cellular glutathione in HCT-116, BJAB, SU-DHL-2, but not in NHLF cells. The maximum reduction of cellular GSH is in the range of 43-69%. The reduction In GSH levels appears independent of apoptosis.
# (§3) NHLF, BJAB, SU-DHL-2, and HCT-116 cells were treated with Compound A197 for 4 hours prior to lysate harvest. Total cellular glutathione (GSH) levels were determined using a luminescent endpoint (GSH-Glo, Promega). Cell proliferation was determined using Cell-Titre Glo following 72 hours of compound treatment. All data shown is mean±SD of three biological replicates.
# NHLF = assay: Total cellular GSH levels (GSH-Glo): NHLF; assay type: cell-based, human; settings: 4 hrs
# Description: as §3
# BJAB [3] = assay: Total cellular GSH levels (GSH-Glo): BJAB; assay type: cell-based, human; settings: 4 hrs, mean ± std. dev.
# Description: as §3
# BJAB [4] = assay: Apoptosis, 72 hr: BJAB; assay type: cell-based, human
# [5] = tested on: BJAB (malignant human B-cell-line); assay: BJAB cell proliferation; assay type: cell-based; settings: BJAB (malignant human B-cell-line) cell proliferation, EC50; read-out: BJAB
# [6] = mouse, plasma, 0.5 mg/kg, Intravenous, 0.5 mpk
smiles,measurement,setting,value
"Cc1nn(-c2nc(-c3ccc(C(F)(F)F)cc3)c(SC(C)C)s2)c(C(=O)O)c1-c1cccc(F)c1 [Compound A197, 4-(3-fluorophenyl)-1-(5-(isopropylthio)-4-(4-(trifluoromethyl)phenyl)thiazol-2-yl)-3-methyl-1H-pyrazole-5-carboxylic acid]",IC50,A549,312 nM
same,IC50,MDA-MB-157,> 30 µM
same,bioavailability,"[1]; plasma, 2.5 mg/kg, Oral, 2.5 mpk, read-out: % F",59.1%
same,bioavailability,"[1]; plasma, 2.5 mg/kg, single oral dose compared to single intravenous dose, read-out: Bioavailability",59%
same,t1/2,"[1]; Intravenous, 0.5 mpk",5.6 h
same,Cmax,"[1]; mouse, 0.5 mg/kg, Intravenous, 0.5 mpk",2880 ng/mL
same,Cmax,"[1]; mouse, 2.5 mg/kg, Oral, 2.5 mpk",2610 ng/mL
same,AUC(0-inf),[1]; [6],14500 ng·h/mL
same,clearance,[1]; [6],0.58 mL/min/kg
same,Vd,"[1]; mouse, plasma, 0.5 mg/kg, Intravenous, 0.5 mpk, read-out: Vss",0.285 L/kg
same,AUC(0-inf),"[1]; mouse, plasma, 2.5 mg/kg, Oral, 2.5 mpk",42900 ng·h/mL
same,Tmax,"[1]; mouse, plasma, 2.5 mg/kg, single oral dose, read-out: Plasma drug tmax",6 h
same,half-life,"[1]; mouse, plasma, iv, 0.5 mg/kg",336 min
same,Outcome: GPCR,GPCR,No activity on 69 family members
same,Outcome: HDAC,HDAC,No activity on any HDAC
same,Outcome: Gene Expression,Gene Expression,induced the ATF4 pathway; also recorded: Induction of ATF pathway; no effect on cell cycle gene
same,eIF2α phosphorylation,eIF2α phosphorylation,Increased eIF2α phosphorylation within 30 minutes
same,maximum reduction of cellular GSH,[2],43-69%
same,GSH % Max reduction,NHLF,0%
same,GSH % Max reduction,BJAB [3],69 ± 11%
same,IC50,"BJAB [3]; Homo sapiens, read-out: GSH IC50 (Abs)",208 ± 80 nM
same,"Apoptosis, 72 hr",BJAB [4],Yes
"COC(=O)c1c(-c2cccc(F)c2)c(C)nn1-c1nc(C2=CCC(C(F)(F)F)CC2)c(SC(C)C)s1 (single isomer, unassigned) [Compound B19, methyl 4-(3-fluorophenyl)-1-(5-(isopropylthio)-4-(4-(trifluoromethyl)cyclohex-1-en-1-yl)thiazol-2-yl)-3-methyl-1H-pyrazole-5-carboxylate]",EC50,[5],< 1000 nM
same,IC50,A549,189 nM
same,IC50,MDA-MB-157,> 30 µM
